Experimental data taken from US20230304058A1, “NOVEL 5'CAP ANALOG HAVING CAP2 STRUCTURE AND PREPARATION METHOD THEREFOR” (Shenzhen Rhegen Biotechnology Co., Ltd., priority 2020, published 2023).

Legend:
[1] = target: T7 Enzyme Mix (Escherichia phage T7, UniProt P00573); experiment: In vitro transcription mRNA synthesis with cap analog, reaction yield; format: biochemical; conditions: per ml transcription reaction system; 37° C. for 6 h; LiCl purification
Description: 1. Before synthesizing mRNA, linearize the plasmid with Notl, digested at […] overnight;
2. Extract with DNA template;
React at 37° C. for 6 h. Digest with TURBO DNase for 15 min.
4. Purify the transcription products using LiCl solution and calculate the reaction yields.

[2] = tested on: mRNA; experiment: mRNA capping rate by RNase H cleavage and LC-MS; format: biochemical; conditions: ratio of capped and uncapped mRNA
Source text: The mRNA molecules with different Cap structures obtained in Example 1 were subjected to enzymatic cleavage, and the ratio of capped and uncapped mRNA molecules could be determined in a liquid chromatography-mass spectrometry analysis experiment.
1. Concentrate the beads using a magnet, aspirate the supernatant storage solution, and add an equal volume of 0.1 M NaOH +0.05 M NaCl;
2. Aspirate the supernatant and resuspend the beads with an equal volume of 0.1 M NaCl, keep the concentration constant;
3. Anneal mRNA and cleavage tags, configure the following reaction system;
Gradient annealing: 95° C. 5 min
4. Combining cleavage tags with beads • Beads were centrifuged at 15,000 g for 5 min, and the supernatant was removed, then 120 μl of annealed mRNA and tags were added and incubated for 30 min at room temperature, during which time they were gently shaken to ensure adequate binding.
5. Enzyme cleavage using RNase H; • Add 10 μl RNase H and incubate at 37° C. for 3 h. Precipitate the beads with magnet and discard the supernatant. • Add 100 μl washing buffer, mix thoroughly, magnet precipitate for 2 min, and discard the supernatant. Repeat 3 times. • Wash with DI water for 3 times.
6. Hydrolysis with RppH; • Use 10 units RppH in nebuffer 2 to hydrolyze at room temperature for 1 h.
DI water was aspirated, 100 μl of 75% ethanol preheated to 80° C. was added, incubat for 3 min, and magnet precipitat for 3 min. The supernatant was taken, followed by evaporating, and centrifuge for 45 min to a volume of 10 μl. Finally, the sample was resuspended in 50 μl of […] EDTA/1% MeOH and left for LC-MS analysis.
9. the mRNA capping rate of different Cap analogs synthesized was analyzed with LC-MS.

[3] = tested on: TLR3, TLR7, TLR8 and RIG-1; experiment: Intracellular immunogenicity of capped mRNA by RNA immunoprecipitation and quantitative PCR; format: cell-based; conditions: relative to ARCA; Human-derived PBMC cells, 5 μg mRNA, Lipofectamine 2000, 24 h
Description: Experimental methods: the intracellular immunoproteins TLR3, TLR7, TLR8 and RIG-1 were immunoprecipitated together with their bound RNAs by RNA immunoprecipitation, and finally these mRNAs were identified by real-time quantitative PCR, and their relative abundance was proportional to their immunogenicity.
The cells were collected by trypsin digestion 24 h later and resuspended in PBS, centrifuged, and collected.
Fixative was added to the cells, and after 15 minutes glycine was added for termination of fixation, followed by centrifugation to collect the cells. Cells were resuspended by adding lysate, incubated on ice at 4° C. for 30 min, centrifuged at 2400 g for 10 min, and the supernatant was collected.
TLR3, TLR7, TLR8 and RIG-1 antibodies (2-10 μg) were added to the supernatant (6-10 mg) followed by gentle incubation at 4° C. for 2 hours. Protein AIG beads (40 μL) were then added to them and incubated gently for 1 h at 4° C.
Centrifuge at 2500 rpm for 30 seconds with precipitated magnetic beads and remove the supernatant. Resuspend the beads in 500 μL of RIP buffer. Wash in RIP buffer a total of three times, followed by one wash in PBS.
Resuspend magnetic beads in TRIzol RNA Extraction Reagent (1 mL) and isolate co-precipitated RNA, and then elute RNA using nuclease-free water (20 μL).
6. Reverse transcribe (RT) the RNA into cDNA and design primers according to the mRNA sequence for quantitative PCR analysis. mRNA immunogenicity is proportional to the number of mRNA copies precipitated by magnetic beads.

Chain of T7 Enzyme Mix (P00573 whole entry): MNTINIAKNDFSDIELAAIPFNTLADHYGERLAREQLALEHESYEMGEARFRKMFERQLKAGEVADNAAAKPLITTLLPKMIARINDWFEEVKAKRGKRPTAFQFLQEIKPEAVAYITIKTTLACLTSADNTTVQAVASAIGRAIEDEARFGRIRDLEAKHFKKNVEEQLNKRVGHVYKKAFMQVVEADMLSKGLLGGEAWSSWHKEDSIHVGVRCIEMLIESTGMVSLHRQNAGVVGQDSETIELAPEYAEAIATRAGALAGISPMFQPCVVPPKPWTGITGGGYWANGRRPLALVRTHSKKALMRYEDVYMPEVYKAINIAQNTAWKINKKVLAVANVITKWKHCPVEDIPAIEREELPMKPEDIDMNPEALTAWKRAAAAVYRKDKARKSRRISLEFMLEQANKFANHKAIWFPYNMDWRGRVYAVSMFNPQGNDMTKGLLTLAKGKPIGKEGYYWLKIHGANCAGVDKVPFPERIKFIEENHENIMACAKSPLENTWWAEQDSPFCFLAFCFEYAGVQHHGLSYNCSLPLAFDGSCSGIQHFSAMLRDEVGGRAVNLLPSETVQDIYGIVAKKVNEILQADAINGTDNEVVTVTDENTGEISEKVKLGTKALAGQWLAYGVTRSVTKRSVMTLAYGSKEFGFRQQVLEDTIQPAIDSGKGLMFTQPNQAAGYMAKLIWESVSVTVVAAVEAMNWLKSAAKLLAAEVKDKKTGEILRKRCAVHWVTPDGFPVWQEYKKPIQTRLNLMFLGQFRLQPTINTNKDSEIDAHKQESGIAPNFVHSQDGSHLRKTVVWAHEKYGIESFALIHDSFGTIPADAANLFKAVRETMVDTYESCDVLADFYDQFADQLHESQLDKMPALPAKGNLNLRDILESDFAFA

Row | SMILES | Mass of final product obtained from 1 ml mRNA synthesis reaction system [1] [mg] | mRNA capping rates when using different Cap structures [2] [%] | Intracellular immunogenicity of mRNA when using different Cap structures [3]
1 | CO[C@@H]1[C@H](OP(=O)(O)OC[C@H]2O[C@@H](n3cnc4c(=O)[nH]c(N)nc43)[C@H](OC)[C@@H]2O)[C@@H](COP(=O)(O)OP(=O)(O)OP(=O)([O-])OC[C@H]2O[C@@H](n3c[n+](C)c4c(=O)[nH]c(N)nc43)[C@H](O)[C@@H]2OC)O[C@H]1n1ccc(=O)[nH]c1=O [Cap analog 20, 3-O-Me-m7G(5′)ppp(5′)(2′OMeU)p(2′OMeG)] | 4.6 | 94.42 | 0.51
2 | CO[C@@H]1[C@H](O)[C@@H](COP(=O)(O)O[C@H]2[C@@H](OC)[C@H](n3cnc4c(N)ncnc43)O[C@@H]2COP(=O)(O)OP(=O)(O)OP(=O)([O-])OC[C@H]2O[C@@H](n3c[n+](C)c4c(=O)[nH]c(N)nc43)[C@H](O)[C@@H]2OC)O[C@H]1n1cnc2c(N)ncnc21 [Cap analog 21, 3-O-Me-m7G(5′)ppp(5′)(2′OMeA)p(2′OMeA)] | 4.8 | 94.55 | 0.15
3 | CO[C@@H]1[C@H](O)[C@@H](COP(=O)(O)O[C@H]2[C@@H](OC)[C@H](n3cnc4c(=O)[nH]c(N)nc43)O[C@@H]2COP(=O)(O)OP(=O)(O)OP(=O)([O-])OC[C@H]2O[C@@H](n3c[n+](C)c4c(=O)[nH]c(N)nc43)[C@H](O)[C@@H]2OC)O[C@H]1n1cnc2c(N)ncnc21 [Cap analog 22, 3-O-Me-m7G(5′)ppp(5′)(2′OMeG)p(2′OMeA)] | 4.6 | 94.83 | 0.29
4 | CO[C@@H]1[C@H](OP(=O)(O)OC[C@H]2O[C@@H](n3cnc4c(N)ncnc43)[C@H](OC)[C@@H]2O)[C@@H](COP(=O)(O)OP(=O)(O)OP(=O)([O-])OC[C@H]2O[C@@H](n3c[n+](C)c4c(=O)[nH]c(N)nc43)[C@H](O)[C@@H]2OC)O[C@H]1n1ccc(N)nc1=O [Cap analog 23, 3-O-Me-m7G(5′)ppp(5′)(2′OMeC)p(2′OMeA)] | 4.5 | 94.65 | 0.41
5 | CO[C@@H]1[C@H](OP(=O)(O)OC[C@H]2O[C@@H](n3cnc4c(N)ncnc43)[C@H](OC)[C@@H]2O)[C@@H](COP(=O)(O)OP(=O)(O)OP(=O)([O-])OC[C@H]2O[C@@H](n3c[n+](C)c4c(=O)[nH]c(N)nc43)[C@H](O)[C@@H]2OC)O[C@H]1n1ccc(=O)[nH]c1=O [Cap analog 24, 3-O-Me-m7G(5′)ppp(5′)(2′OMeU)p(2′OMeA)] | 4.7 | 94.72 | 0.48
6 | CO[C@@H]1[C@H](O)[C@@H](COP(=O)(O)O[C@H]2[C@@H](OC)[C@H](n3cnc4c(N)ncnc43)O[C@@H]2COP(=O)(O)OP(=O)(O)OP(=O)([O-])OC[C@H]2O[C@@H](n3c[n+](C)c4c(=O)[nH]c(N)nc43)[C@H](O)[C@@H]2OC)O[C@H]1n1ccc(N)nc1=O [Cap analog 25, 3-O-Me-m7G(5′)ppp(5′)(2′OMeA)p(2′OMeC)] | 4.1 | 94.8 | 0.29
7 | CO[C@@H]1[C@H](O)[C@@H](COP(=O)(O)O[C@H]2[C@@H](OC)[C@H](n3cnc4c(=O)[nH]c(N)nc43)O[C@@H]2COP(=O)(O)OP(=O)(O)OP(=O)([O-])OC[C@H]2O[C@@H](n3c[n+](C)c4c(=O)[nH]c(N)nc43)[C@H](O)[C@@H]2OC)O[C@H]1n1ccc(N)nc1=O [Cap analog 26, 3-O-Me-m7G(5′)ppp(5′)(2′OMeG)p(2′OMeC)] | 4.6 | 94.97 | 0.49
8 | CO[C@@H]1[C@H](O)[C@@H](COP(=O)(O)O[C@H]2[C@@H](OC)[C@H](n3ccc(N)nc3=O)O[C@@H]2COP(=O)(O)OP(=O)(O)OP(=O)([O-])OC[C@H]2O[C@@H](n3c[n+](C)c4c(=O)[nH]c(N)nc43)[C@H](O)[C@@H]2OC)O[C@H]1n1ccc(N)nc1=O [Cap analog 27, 3-O-Me-m7G(5′)ppp(5′)(2′OMeC)p(2′OMeC)] | 4.7 | 94.88 | 0.09
9 | CO[C@@H]1[C@H](O)[C@@H](COP(=O)(O)O[C@H]2[C@@H](OC)[C@H](n3ccc(=O)[nH]c3=O)O[C@@H]2COP(=O)(O)OP(=O)(O)OP(=O)([O-])OC[C@H]2O[C@@H](n3c[n+](C)c4c(=O)[nH]c(N)nc43)[C@H](O)[C@@H]2OC)O[C@H]1n1ccc(N)nc1=O [Cap analog 28, 3-O-Me-m7G(5′)ppp(5′)(2′OMeU)p(2′OMeC)] | 4.8 | 94.62 | 0.52
10 | CO[C@@H]1[C@H](O)[C@@H](COP(=O)(O)O[C@H]2[C@@H](OC)[C@H](n3cnc4c(N)ncnc43)O[C@@H]2COP(=O)(O)OP(=O)(O)OP(=O)([O-])OC[C@H]2O[C@@H](n3c[n+](C)c4c(=O)[nH]c(N)nc43)[C@H](O)[C@@H]2OC)O[C@H]1n1ccc(=O)[nH]c1=O [Cap analog 29, 3-O-Me-m7G(5′)ppp(5′)(2′OMeA)p(2′OMeU)] | 5.3 | 94.93 | 0.27
11 | CO[C@@H]1[C@H](O)[C@@H](COP(=O)(O)O[C@H]2[C@@H](OC)[C@H](n3cnc4c(=O)[nH]c(N)nc43)O[C@@H]2COP(=O)(O)OP(=O)(O)OP(=O)([O-])OC[C@H]2O[C@@H](n3c[n+](C)c4c(=O)[nH]c(N)nc43)[C@H](O)[C@@H]2OC)O[C@H]1n1ccc(=O)[nH]c1=O [Cap analog 30, 3-O-Me-m7G(5′)ppp(5′)(2′OMeG)p(2′OMeU)] | 5.3 | 94.8 | 0.31
12 | CO[C@@H]1[C@H](O)[C@@H](COP(=O)(O)O[C@H]2[C@@H](OC)[C@H](n3ccc(N)nc3=O)O[C@@H]2COP(=O)(O)OP(=O)(O)OP(=O)([O-])OC[C@H]2O[C@@H](n3c[n+](C)c4c(=O)[nH]c(N)nc43)[C@H](O)[C@@H]2OC)O[C@H]1n1ccc(=O)[nH]c1=O [Cap analog 31, 3-O-Me-m7G(5′)ppp(5′)(2′OMeC)p(2′OMeU)] | 4.5 | 94.7 | 0.4
13 | CO[C@@H]1[C@H](O)[C@@H](COP(=O)(O)O[C@H]2[C@@H](OC)[C@H](n3ccc(=O)[nH]c3=O)O[C@@H]2COP(=O)(O)OP(=O)(O)OP(=O)([O-])OC[C@H]2O[C@@H](n3c[n+](C)c4c(=O)[nH]c(N)nc43)[C@H](O)[C@@H]2OC)O[C@H]1n1ccc(=O)[nH]c1=O [Cap analog 32, 3-O-Me-m7G(5′)ppp(5′)(2′OMeU)p(2′OMeU)] | 4.3 | 94.66 | 0.3
